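Interpolation was linear, between the two tested concentrations surrounding the appropriate level; five concentrations were tested over 48 hours in 96-well plates. GI50 marks 50% less growth. TGI is the concentration that stops growth completely.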

In PubChem BioAssay (NCI) one finds GI50 and TGI data, which are given here for eleven compounds.

Assay in all cases: growth of human tumour cells (NCI), 48 h
Assay [1] has as its system K-562 leukemia.
Assay [2] has as its system HCC-2998 colon.
Assay [3] relates to KM12 colon.
Assay [4] relates to 786-0 renal.
In assay [5] the test system is RXF 393 renal.
The test system of assay [6] is COLO 205 colon.
Assay [7] concerns LOX IMVI melanoma.
The test system of assay [8] is SR leukemia.
Assay [9] deals with MDA-MB-435.
Assay [10] has as its system SNB-75 CNS.

Regarding `CC(=O)Nc1ccc(S(=O)(=O)c2ccc(NC(C)=O)cc2)cc1`, the GI50 in assay [1], in [2], in assay [3], in assay [4], in [5] and in [6] was above 100 µM in each case. Besides, the GI50 in assay [7], in assay [8] and in [9] was above 100 µM in each case. For the same compound, the TGI in assay [1], in assay [2], in assay [3], in [4], in assay [5] and in assay [6] was above 100 µM throughout. In addition, the TGI in assay [7], in [8] and in assay [9] was above 100 µM in each case.

As to `COc1ccc(OC)c(-c2cc(C(=O)O)c3cc4ccccc4cc3n2)c1`, the TGI in assay [1], in [3], in assay [4], in assay [5], in [10] and in assay [6] was above 100 µM in each case. Besides, the TGI in [7], in assay [8] and in [9] was above 100 µM each time.

On to `Cc1ccc(C)c(N2C(=O)C(=O)c3c(C)ccc(C)c32)c1`, for which the TGI in [1] was 48.5 µM; in assay [3] it was 66.1 µM; in assay [4], above 100 µM; in assay [5] it was above 100 µM; in assay [10], above 100 µM; in assay [6] it was above 100 µM. The figures for the TGI in [7], in [8] and in assay [9] were 31.2 µM, 37.7 µM and 46.4 µM, respectively.

Turning to `CS(=O)(=O)N(CC(=O)O)Cc1ccccc1`, the TGI in [1], in assay [3], in [4], in assay [5], in assay [10] and in [6] was above 100 µM throughout. The TGI in assay [7], in assay [8] and in [9] was above 100 µM in each case.

Regarding `Cc1nn(-c2ccccc2)c(C)c1/C=N/N1CCN(Cc2ccccc2)CC1`, the GI50 was 31.2 µM in [1]; 31.3 µM in assay [3]; 22.9 µM in [4]; above 100 µM in assay [5]; 99 µM in [10]; 41 µM in assay [6]. The GI50 in [7] was 44 µM; in assay [8] it was 13.8 µM; in [9], above 100 µM. Further, the TGI in assay [1] is above 100 µM; in assay [3], above 100 µM; in assay [4], 97.4 µM; in assay [5], above 100 µM; in [10] it was above 100 µM; in [6], above 100 µM. In addition, the results for the TGI in assay [7], in assay [8] and in [9] were above 100 µM, 35.1 µM and above 100 µM, respectively.

Take `COc1cc(CCNc2nc3cc(N)cc(N)c3nc2-c2ccccc2)cc(OC)c1`: the GI50 is 1.73 µM in assay [1]; 1.69 µM in assay [3]; 2 µM in assay [4]; 1.59 µM in assay [5]; 1.37 µM in assay [10]; 1.76 µM in assay [6]. The results for the GI50 in assay [7], in assay [8] and in assay [9] were 1.65 µM, 0.354 µM and 1.77 µM, respectively. The TGI stood at 4.25 µM in assay [1]; 3.54 µM in assay [3]; 3.99 µM in assay [4]; 4.8 µM in assay [5]; 2.85 µM in [10]; 3.56 µM in assay [6]. Besides, the TGI in assay [7] came out at 3.17 µM; in assay [8] it was 2.22 µM; in assay [9], 3.5 µM.

Take `O=C1C(Cl)=C(Nc2cccc(O)c2)C(=O)N1c1ccc(Cl)cc1Cl`: the GI50 in [1] is 22 µM; in assay [3], 38.8 µM; in assay [4], 32.8 µM; in assay [5] it was 17 µM; in assay [6], 28.2 µM; in [7], 19.3 µM. Further, the GI50 is 2.76 µM in [8] and 30.7 µM in [9]. Moreover, the TGI in assay [1] is 58.1 µM; in assay [3], above 100 µM; in assay [4] it was above 100 µM; in assay [5], 67.3 µM; in assay [6], above 100 µM; in assay [7] it was 48.3 µM. Moreover, the results for the TGI in assay [8] and in assay [9] were 26.9 µM and above 100 µM, respectively.

Regarding `COc1ccc(C(=O)C(CC2C(=O)CC(C)(C)C(C(=O)C(=O)Nc3c(C)cccc3C)C2=O)c2ccc(OC)cc2)cc1` (stereo not given), the TGI in [2], in [3], in assay [4], in assay [5], in [10] and in assay [6] was above 100 µM in each case. For the same compound, the TGI in assay [7] was above 100 µM; in assay [8], 91.9 µM; in assay [9], above 100 µM.

As for `O=C(NCc1cccs1)OC1CC2CCC1C2` (stereo not given), the TGI in [1], in [3], in assay [4], in assay [5], in assay [6] and in assay [7] was above 100 µM each time. In addition, the TGI in assay [8] and in assay [9] was above 100 µM in each case.

For the compound `[O]=[W](=[O])([OH])[OH]`, the GI50 in [1], in assay [2], in assay [3], in assay [4], in assay [5] and in [10] was above 100 µM each time. The GI50 in assay [6], in assay [8] and in assay [9] was above 100 µM in each case. The TGI in [1], in assay [2], in assay [3], in [4], in assay [5] and in [10] was above 100 µM in each case. Moreover, the TGI in assay [6], in assay [8] and in assay [9] was above 100 µM each time.

Regarding `O=C(O)C1CCCCC1C(=O)Nc1nc2ccccc2[nH]1` (stereo not given), the TGI in assay [3], in [4], in assay [5], in [10], in assay [6] and in [7] was above 100 µM each time. The TGI in assay [8] and in [9] was above 100 µM throughout.
